This is an account of results in US20070173463A1, “Method and composition for treating otitis media” (priority 2006, published 2007).

The conditions of series [1]: prophylactic drops; cited from earlier work.
The conditions of series [2]: topical use in the ear; cited from earlier work.
Another series has as its system ear. The following applies: guinea pigs; cited from earlier work.
Series [3] concerns inner ear hearing function. In words: Application to the round window membrane with monitoring of compound action potential (CAP). The following applies: 0.05 to 1.0% applied directly to the round window membrane, more than 50 animals. In kind it is in vivo, guinea pigs. The text has this:
The inventor conducted animal studies involving application of alpha agonists, including phenylphrine (and other similar agents) directly in the middle ear space of guinea pigs. In these studies, phenylephrine at a concentration of 0.05 to 1.0% was applied directly to the round window membrane of the animal. […] The monitoring of CAP was not specifically reported in published reports, but rather was monitored on a routine basis as a part of the experimental setup. […] See also Isaacson G et al., Oxymetazoline solutions inhibit middle ear pathogens and are not ototoxic.

For series [4] the following is noted: topical; cited from earlier work.

Turning to `O=C(O)c1cn(C2CC2)c2cc(N3CCNCC3)c(F)cc2c1=O` [ciprofloxacin], the “prevention of post-operative ear drainage after tube insertion” value in series [1] is “effective at preventing post-operative ear drainage after tube insertion”. With `CC1COc2c(N3CCN(C)CC3)c(F)cc3c(=O)c(C(=O)O)cn1c23` (stereo not drawn) [ofloxacin], the “toxicity for the inner ear (ototoxicity)” value in series [2] is “demonstrated lack of toxicity for the inner ear”. Consider `Cc1cc(C(C)(C)C)c(O)c(C)c1CC1=NCCN1` [oxymetazoline], for which, in the series on ear, the “toxicity to the ear” value is on record as “non-toxic to the ear”. Consider `CNC[C@H](O)c1cccc(O)c1` [phenylephrine], for which the “compound action potential (CAP), a measure of inner ear hearing function” value in series [3] is “not found to be adversely affected”.

Turning to `NC[C@H]1O[C@H](O[C@H]2[C@H](O)[C@@H](O[C@H]3O[C@H](CO)[C@@H](O)[C@H](N)[C@H]3O)[C@H](N)C[C@@H]2N)[C@H](N)C[C@@H]1O` [tobramycin], the “effectiveness in treating middle ear infections” value (“effectiveness” for short) in series [4] is “effective in treating middle ear infections topically”. The “toxicity for the inner ear (ototoxicity)” value in series [2] is on record as “scattered reports of ototoxicity”.

In the case of Gentamycin, the “effectiveness” value in series [4] is “effective in treating middle ear infections topically”. In addition, the “toxicity for the inner ear (ototoxicity)” value in series [2] is “scattered reports of ototoxicity”.

Take neomycin: the “effectiveness” value in series [4] is on record as “effective in treating middle ear infections topically”.
